For this assay, the system named is SW48 cells. The assay can be described thus: 5-Aza-dC treatment and RT-PCR: reactivation of silenced genes in SW48 cells. Format: cell-based. To be noted: SW48 colon cancer cells, 5 μM 5-Aza-dC for 4 days, subset of candidate genes, versus untreated cells. An excerpt:
FIG. 3: Validation of novel targets for aberrant methylation in colon cancer. A. Primers for PCR were designed for positive clones identified in the microarray analysis as hypermethylated in SW48 cells. DNA methylation was controlled by Single-gene PCR on enriched methylated samples prepared from WI38 primary fibroblasts and SW48 colon cancer cells according to the method described above. IN=input genomic DNA, M=enriched methylated DNA. As a separate control the inventors analyzed samples prepared from matched normal colon (N) and colon tumor (T) from three patients. MLH1 and RASSF1A have previously been described to be aberrantly methylated in SW48 cells and in some colon tumors. The imprinted H19 ICR sequence serves as a positive control for methylation. B. Control of methylation status by methylation-sensitive restriction. Genomic DNA was either digested with the methylation-sensitive HpaII enzyme or undigested and used as a PCR template with primers spanning a HpaII-containing PCR fragments in three randomly selected positive clones (top) and negative clones (bottom). The number of HpaII sites within the PCR amplicon is indicated in parenthesis. Presence of a PCR product after HpaII digest reflects DNA methylation in the sample and in each case confirms the above described enrichment analysis. C. Reactivation of silenced genes in SW48 cells by 5-Aza-dC treatment. […]

For the compound `Nc1ncn([C@H]2C[C@H](O)[C@@H](CO)O2)c(=O)n1` [5-Aza-dC], the “transcription of silenced (methylated) genes by RT-PCR after treatment with the demethylating agent” value is listed as “derepression”.

(Values after patent publication US20120288509A1, “ANALYSIS OF METHYLATED NUCLEIC ACID” (priority 2004, published 2012).)
